Results on one molecule are retold here after ChEMBL document CHEMBL3792284, “Synthesis of triazoloquinazolinone based compounds as tubulin polymerization inhibitors and vascular disrupting agents” (Eur J Med Chem, 2016).

Series [1] deals with SR. Briefly: Growth inhibition of human SR cells after 48 hrs by sulforhodamine B assay. The format is functional.
Series [2] relates to U-251. Briefly: Growth inhibition of human U251 cells at 10 uM after 48 hrs by sulforhodamine B assay. The format is functional. Conditions: U-251, 48 h, read-out: GI.
A short description of series [3]: Growth inhibition of human COLO205 cells at 10 uM after 48 hrs by sulforhodamine B assay. The format is functional. As to conditions: COLO 205, 48 h, read-out: GI. On the technique in general: The SRB assay estimates cell density from bound dye.
The nature of series [4]: Cytotoxicity against human HL-60(TB) cells assessed as cell growth at 10 uM after 48 hrs by sulforhodamine B assay. The format is functional. Conditions: HL-60, 48 h, read-out: Activity.
Series [5] in a line: Growth inhibition of human OVCAR3 cells after 48 hrs by sulforhodamine B assay. The format is functional. As to conditions: OVCAR-3, 48 h.
For series [6], the system named is A498. Briefly: Growth inhibition of human A498 cells at 10 uM after 48 hrs by sulforhodamine B assay. Conditions: A498, 48 h, read-out: GI. The format is functional.
Series [7] can be described thus: Growth inhibition of human HCT116 cells at 10 uM after 48 hrs by sulforhodamine B assay. As to conditions: HCT-116, 48 h, read-out: GI. The format is functional.
Series [8] can be described thus: Growth inhibition of human NCI-ADR-RES cells after 48 hrs by sulforhodamine B assay. It counts as functional.
A short description of series [9]: Growth inhibition of human HOP62 cells after 48 hrs by sulforhodamine B assay. The format is functional. Conditions: HOP-62, 48 h.
The subject of series [10] is MCF7. Put plainly: Growth inhibition of human MCF7 cells at 10 uM after 48 hrs by sulforhodamine B assay. It counts as functional. As to conditions: MCF7, 48 h, read-out: GI.
The nature of series [11]: Growth inhibition of human HL-60(TB) cells after 48 hrs by sulforhodamine B assay. It counts as functional. As to conditions: HL-60, 48 h.
Series [12] can be described thus: Growth inhibition of human NCI-ADR-RES cells at 10 uM after 48 hrs by sulforhodamine B assay. Conditions: read-out: GI. It counts as functional.
Series [13] has as its system HUVEC. Put plainly: Cytotoxicity against HUVEC at 1 uM after 72 hrs by MTS assay. It counts as cell-based. As to conditions: human. (In general: Tetrazolium dyes change colour on reduction, which living cells bring about.)

Usually GI50 stands for the concentration giving 50% growth inhibition. Take `COc1ccc(-c2nnc3n(C)c(=O)c4ccccc4n23)cc1O`: the GI50 came to 31 nM in [1]; 45 nM in [5]; 62 nM in series [8]; 48 nM in series [9]; 64 nM in series [11]. Also, the inhibition of growth at 10 µM is 82% in series [2]; 83% in series [3]; 66% in series [6]; 86% in series [7]; 85% in series [10]; 85% in series [12]. For the same molecule, in series [4], the growth at 10 µM was found to be 19%. Further, the Activity entry in series [13] was “Non-toxic”.
